Laboratory results published in US8933221B2, “Hexahydropyrano[3,4-d][1,3]thiazin-2-amine compounds” (Pfizer Inc., priority 2011, dated 2015).
Where a name gives a salt, the structure may show the parent alone.

Key:
[1] = tested on: sAPPβ levels in H4 human neuroglioma cells over-expressing wild-type human APP695; test: sAPPβ whole cell assay (in vitro sAPPb assay, TMB-ELISA); type: cell-based
BACE1 enzyme = BACE1 enzyme (Homo sapiens, UniProt P56817); test: BACE1 cell-free assay (fluorescence polarization, synthetic APP substrate); type: biochemical; conditions: for IC50: values marked b from a single determination; for activity against the BACE1 enzyme: statement in words, used to assign stereochemistry;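 for all read-outs here: soluble His-tagged BACE1 purified from transfected CHO-K1 cell media, biotinylated Oregon Green-labelled peptide substrate, 3 h at 37 °C, cleavage followed as change in fluorescence polarization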
Chain of BACE1 enzyme (P56817 46-501 limits assumed): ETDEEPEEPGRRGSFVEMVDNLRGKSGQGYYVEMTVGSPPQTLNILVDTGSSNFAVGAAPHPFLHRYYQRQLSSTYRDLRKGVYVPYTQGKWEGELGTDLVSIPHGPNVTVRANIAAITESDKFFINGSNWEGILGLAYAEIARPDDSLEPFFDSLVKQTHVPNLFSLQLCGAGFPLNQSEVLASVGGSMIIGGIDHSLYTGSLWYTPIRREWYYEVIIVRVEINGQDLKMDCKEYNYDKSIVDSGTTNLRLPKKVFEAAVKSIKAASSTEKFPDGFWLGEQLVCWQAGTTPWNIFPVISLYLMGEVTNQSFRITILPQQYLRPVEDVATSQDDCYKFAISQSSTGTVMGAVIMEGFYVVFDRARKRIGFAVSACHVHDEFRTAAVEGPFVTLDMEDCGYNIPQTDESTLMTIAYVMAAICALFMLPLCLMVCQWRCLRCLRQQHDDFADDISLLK

[2] = Homo sapiens, 18 hours, geometric mean of 2-6 determinations
[3] = geometric mean of 2-6 determinations
[4] = Homo sapiens, 18 hours, geometric mean of 2-4 determinations, values marked b from a single determination
[5] = geometric mean of 2-4 determinations
[6] = Homo sapiens, 18 h, geometric mean of 2-4 determinations, values marked b from a single determination

Row | Structure (SMILES) | IC50 (BACE1 enzyme; [3]) [nM] | IC50 [1, 4] [nM] | IC50 (BACE1 enzyme; [5]) [nM] | also measured
1 | NC1=N[C@@]2(c3ccccc3F)CO[C@@H](COc3ccccn3)C[C@H]2CS1 [Example 8, (4aR,6R,8aS)-8a-(2-Fluorophenyl)-6-[(pyridin-2-yloxy)methyl]-4,4a,5,6,8,8a-hexahydropyrano[3,4-d][1,3]thiazin-2-amine] |  | 239 | 2380 | 
2 | NC1=N[C@]2(c3ccc(F)cc3F)COCC[C@@H]2CS1 [Example 20, (4aS,8aR)-8a-(2,4-Difluorophenyl)-4,4a,5,6,8,8a-hexahydropyrano[3,4-d][1,3]thiazin-2-amine] |  | > 27100 |  | activity against the BACE1 enzyme (BACE1 enzyme): does not
3 | NC1=N[C@@]2(c3ccc(Cl)cc3F)COCC[C@H]2CS1 (relative stereo) [Example 17, rel-(4aR,8aS)-8a-(4-chloro-2-Fluorophenyl)-4,4a,5,6,8,8a-hexahydropyrano[3,4-d][1,3]thiazin-2-amine, hydrochloride salt] |  | 775 | 10200 | 
4 | COc1ccccc1[C@]12COCC[C@H]1CSC(N)=N2 (relative stereo) [Example 19, rel-(4aR,8aS)-8a-(2-Methoxyphenyl)-4,4a,5,6,8,8a-hexahydropyrano[3,4-d][1,3]thiazin-2-amine] |  | 4030 | > 100000 | 
5 | C[C@@H]1SC(N)=N[C@@]2(c3ccccc3F)COCC[C@@H]12 (racemic) [Example 28] | 11200 |  |  | IC50 [1, 2]: 445 nM
6 | NC1=N[C@@]2(c3ccccc3F)COCC[C@H]2CS1 (racemic) [Example 23] | 7950 |  |  | IC50 ([1]; 18 hours, geometric mean of 2-6 determinations): 436 nM
7 | NC1=N[C@@]2(c3ccc(F)cc3)COCC[C@H]2CS1 (relative stereo) [Example 11, rel-(4aR,8aS)-8a-(4-Fluorophenyl)-4,4a,5,6,8,8a-hexahydropyrano[3,4-d][1,3]thiazin-2-amine] |  | 380 | 7520 | 
8 | NC1=N[C@@]2(c3c(F)cccc3F)COCC[C@H]2CS1 (relative stereo) [Example 16, rel-(4aR,8aS)-8a-(2,6-Difluorophenyl)-4,4a,5,6,8,8a-hexahydropyrano[3,4-d][1,3]thiazin-2-amine] |  |  |  | IC50 [1, 6]: 506 nM
9 | NC1=N[C@@]2(c3ccccc3F)CO[C@@H](COc3ncccn3)C[C@H]2CS1 [Example 22, (4aR,6R,8aS)-8a-(2-Fluorophenyl)-6-[(pyrimidin-2-yloxy)methyl]-4,4a,5,6,8,8a-hexahydropyrano[3,4-d][1,3]thiazin-2-amine, trifluoroacetic acid salt] |  | 71.1 | 8030 | 
10 | NC1=N[C@@]2(c3ccc(F)cc3F)COCC[C@H]2CS1 [Example 1, (4aR,8aS)-8a-(2,4-Difluorophenyl)-4,4a,5,6,8,8a-hexahydropyrano[3,4-d][1,3]thiazin-2-amine] |  | 211 |  | activity against the BACE1 enzyme (BACE1 enzyme): displays activity against the BACE1 enzyme
11 | NC1=N[C@@]2(c3ccc(F)cc3F)CO[C@@H](COCc3ccccc3)C[C@H]2CS1 [Example 6, (4aR,6R,8aS)-6-[(Benzyloxy)methyl]-8a-(2,4-difluorophenyl)-4,4a,5,6,8,8a-hexahydropyrano[3,4-d][1,3]thiazin-2-amine, trifluoroacetic acid salt] |  | 64.6 | 32.3 | 
12 | NC1=N[C@@]2(c3ccccc3F)CO[C@@H](COc3cnccn3)C[C@H]2CS1 [Example 21, (4aR,6R,8aS)-8a-(2-Fluorophenyl)-6-[(pyrazin-2-yloxy)methyl]-4,4a,5,6,8,8a-hexahydropyrano[3,4-d][1,3]thiazin-2-amine, trifluoroacetic acid salt] |  | 23.1 | 2030 | 
13 | NC1=N[C@@]2(c3ccccc3F)CO[C@@H](COc3ccccc3)C[C@H]2CS1 [Example 7, (4aR,6R,8aS)-8a-(2-Fluorophenyl)-6-(phenoxymethyl)-4,4a,5,6,8,8a-hexahydropyrano[3,4-d][1,3]thiazin-2-amine] |  | 108 | 826 | 
14 | CC(C)OC[C@H]1C[C@H]2CSC(N)=N[C@@]2(c2ccccc2F)CO1 [Example 2, (4aR,6R,8aS)-8a-(2-Fluorophenyl)-6-[(propan-2-yloxy)methyl]-4,4a,5,6,8,8a-hexahydropyrano[3,4-d][1,3]thiazin-2-amine, trifluoroacetate salt] |  | 72.9 | 396 | 

Further lines, with some results ahead:

Row | IC50 (BACE1 enzyme; [3]) [nM] | IC50 [1, 4] [nM] | IC50 (BACE1 enzyme; [5]) [nM] | Structure (SMILES) | also measured
15 | 1240 |  |  | COC[C@H]1C[C@H]2CSC(N)=N[C@@]2(c2ccccc2F)CO1 [Example 26] | IC50 [1, 2]: 148 nM
16 |  | 80 | 914 | CCOC[C@H]1C[C@H]2CSC(N)=N[C@@]2(c2ccccc2F)CO1 [Example 9, (4aR,6R,8aS)-6-(Ethoxymethyl)-8a-(2-fluorophenyl)-4,4a,5,6,8,8a-hexahydropyrano[3,4-d][1,3]thiazin-2-amine, trifluoroacetic acid salt] | 
17 | 87900 |  |  | NC1=N[C@@]2(c3ccccc3OC(F)(F)F)COCC[C@H]2CS1 [Example 25] | 
18 |  |  | 7950 | NC1=N[C@@]2(c3ccccc3F)COCC[C@H]2CS1 (relative stereo) [Example 12, rel-(4aR,8aS)-8a-(2-Fluorophenyl)-4,4a,5,6,8,8a-hexahydropyrano[3,4-d][1,3]thiazin-2-amine] | IC50 [1, 6]: 436 nM
19 | 6720 |  |  | C[C@H]1SC(N)=N[C@@]2(c3ccccc3F)COCC[C@@H]12 (racemic) [Example 27] | IC50 [1, 2]: 434 nM
20 |  | 1000 | 5350 | NC1=N[C@@]2(c3ccc(O)cc3F)COCC[C@H]2CS1 (relative stereo) [Example 18, rel-4-[(4aR,8aS)-2-Amino-4,4a,5,6-tetrahydropyrano[3,4-d][1,3]thiazin-8a(8H)-yl]-3-fluorophenol, ammonium salt] | 
21 | 27800 |  |  | C[C@H]1SC(N)=N[C@@]2(c3cc(Br)ccc3F)COCC[C@@H]12 (racemic) [Example 30] | IC50 [1, 2]: 1650 nM
22 |  | 477 | 10400 | NC1=N[C@@]2(c3ccccc3)COCC[C@H]2CS1 (relative stereo) [Example 14, rel-(4aR,8aS)-8a-Phenyl-4,4a,5,6,8,8a-hexahydropyrano[3,4-d][1,3]thiazin-2-amine] | 
23 |  | 492 | 13000 | NC1=N[C@@]2(c3ccccc3F)CO[C@@H](COC(=O)c3ccccc3)C[C@H]2CS1 [Example 15, [(4aR,6R,8aS)-2-Amino-8a-(2-fluorophenyl)-4,4a,5,6,8,8a-hexahydropyrano[3,4-d][1,3]thiazin-6-yl]methyl benzoate] | 
24 |  | 438 | 3730 | Cc1ccc([C@]23COCC[C@H]2CSC(N)=N3)c(F)c1 (relative stereo) [Example 13, rel-(4aR,8aS)-8a-(2-Fluoro-4-methylphenyl)-4,4a,5,6,8,8a-hexahydropyrano[3,4-d][1,3]thiazin-2-amine, hydrochloride salt] | 
25 | 8410 |  |  | NC1=N[C@@]2(c3ccccc3F)CO[C@@H](CO)C[C@H]2CS1 [Example 29] | IC50 [1, 2]: 493 nM
26 |  | 83.4 | 838 | NC1=N[C@@]2(c3ccccc3F)CO[C@@H](CF)C[C@H]2CS1 [Example 5, (4aR,6R,8aS)-6-(Fluoromethyl)-8a-(2-fluorophenyl)-4,4a,5,6,8,8a-hexahydropyrano[3,4-d][1,3]thiazin-2-amine] | 
27 | 3000 |  |  | C[C@H]1SC(N)=N[C@@]2(c3cc(-c4cncnc4)ccc3F)COCC[C@@H]12 (racemic) [Example 31] | IC50 [1, 2]: 112 nM
28 | 4540 |  |  | NC1=N[C@@]2(c3ccccc3F)COCC[C@H]2CS1 [Example 24] | IC50 ([1]; Homo sapiens, 18 h, geometric mean of 2-6 determinations): 452 nM
29 |  | 436 | 2270 | NC1=N[C@@]2(c3ccc(F)cc3F)CO[C@@H](CO)C[C@H]2CS1 [Example 3, [(4aR,6R,8aS)-2-Amino-8a-(2,4-difluorophenyl)-4,4a,5,6,8,8a-hexahydropyrano[3,4-d][1,3]thiazin-6-yl]methanol] | 
